Laboratory results published in patent US20240076347A1, “METHODS FOR PREVENTING FUNGAL INFECTIONS” (Cidara Therapeutics, Inc., priority 2016, published 2024).
Numbered stars: 1 amine (or outer) side, 2 acyl side, 3 side chain; on linkers, the order of the positions; unused ones are H or OH. Bridge positions count the residues as written; N and C are the ends. Square brackets hold non-standard residues; d marks the D form. Peptide text beside a SMILES is read from it. * marks the point of attachment. ξ: configuration not given here. Orn(4R-OH,5R-OCH2CH2NMe3+) = C[N+](C)(C)CCO[C@@H](N[*:3])[C@H](O)C[C@H](N[*:1])C(=O)[*:2]; pTerphenylCO(4''-OnC5H11) = CCCCCOc1ccc(-c2ccc(-c3ccc(C(=O)*)cc3)cc2)cc1; hTyr(3S-OH,4S-OH) = N[C@H](C(=O)O)[C@H](O)[C@@H](O)c1ccc(O)cc1; X1 = C[C@H]1CN([*:1])C(C(=O)[*:2])C1O; Hyp = O=C(O)[C@@H]1C[C@@H](O)CN1; ξT = CC(O)C(N)C(=O)O

Tests used:
[1] = test system: Candida albicans ATCC SC5314; assay: MIC used for free drug plasma concentration over MIC, candidiasis model; type: cell-based
[2] = Plasma protein binding by ultracentrifugation; type: in vitro ADME; settings: mouse plasma; read-out: percent of bound CD101, mean (protein binding) (converted)
Experimental: Concentrations in plasma ranging from 7 to 60 μg/mL were tested and resulting samples were analyzed by LC-MS/MS.

[3] = test system: A. fumigatus clinical isolates; assay: MEC, CLSI broth microdilution (M38-A2), SENTRY clinical isolates; type: cell-based, Aspergillus fumigatus; settings: 153 isolates, 2014 and 2015 SENTRY
From the text: The in vitro activity of CD101 was previously evaluated as part of the SENTRY international surveillance program using CLSI broth microdilution methodology (M38-A2, M27-A3; Pfaller, et al 2017). […] These susceptibility data were then compared graphically to CD101 plasma concentrations from studies in healthy adults, adjusted for plasma protein binding. Nonclinical efficacy in a murine model of Pneumocystis pneumonia were also considered to evaluate CD101 doses for clinical investigation of antifungal prophylaxis.
The in vitro activity of CD101 was evaluated against 153 A. fumigatus clinical isolates collected as part of the 2014 and 2015 JMI international SENTRY surveillance program. Susceptibility was determined by measuring the minimal effective concentration (MEC) values in accordance with CLSI broth microdilution guidelines (M38-A2). In vivo tissue distribution of CD101 in SD rats (N=3/time up to 5 d) after a 5 mg/kg IV CD101 dose. Plasma/tissue concentrations were measured by LC-MS/MS.

C. glabrata = assay: Neutropenic murine disseminated candidiasis model, PK/PD target determination; type: in vivo, Candida glabrata
Experimental: Infection model. A neutropenic, murine, disseminated candidiasis model was used for the treatment studies. The mice were rendered neutropenic (polymorphonuclear cell count, <100/mm3) by injecting 150 mg/kg of cyclophosphamide (Mead Johnson Pharmaceuticals, Evansville, IN) subcutaneously 4 days before infection, 100 mg/kg of cyclophosphamide 1 day before infection, and additional cyclophosphamide doses (100 mg/kg) on Day 2 and Day 4 after infection to ensure neutropenia throughout the 168 h (7 d) study period. Three mice were included in each treatment and control group.
The organisms were subcultured on SDA plates 24 h prior to infection. The inoculum was prepared by placing 3 to 5 colonies into 5 ml of sterile pyrogen-free 0.15 M NaCl warmed to 35° C. The final inoculum was adjusted to a 0.6 transmittance at 530 nm. The fungal count of the inoculum determined by viable counts on SDA was 6.1±0.2 log10 CFU/ml.
Disseminated infection with the Candida strains was achieved by injection of 0.1 ml of the inoculum via the lateral tail vein 2 h prior to the start of antifungal therapy. At the end of the study period, the animals were sacrificed by CO2 asphyxiation. The kidneys of each mouse were aseptically removed and placed in 0.15 M NaCl at 4° C. The kidneys were homogenized and serially diluted 1:10, and the aliquots were plated onto SDA for viable fungal colony counts after incubation for 24 h at 35° C. The lower limit of detection was 100 CFU/ml. The results are expressed as the mean CFU/kidney for three mice.
Treatment efficacy and pharmacodynamic target determination of CD101. Neutropenic mice were infected with one of 10 Candida strains as described above. […] Five dose levels that varied from 0.25 to 64 mg/kg were administered once in a 0.2-ml volume by IP route for the 168 h study period. Due to enhanced effect against single isolate, additional studies at 0.0156 and 0.0625 mg/kg was examined for C. glabrata 5592. Groups of three mice were used for each dosing regimen and control group. At the end of the treatment period (168 h), the mice were euthanized, and their kidneys were immediately processed for CFU determination as described above.
Data analysis. A sigmoid dose-effect (Hill) model was used to measure the in vivo potency of CD101. The efficacy endpoints included the dose level required to produce a 24 h net static effect (no change in organism burden compared to that at the start of therapy) and the dose required to achieve a 1-log10 reduction in colony counts (relative to the burden at the start of therapy), when achieved. The maximum response (Emax) was measured as the difference in the number of CFU/kidney relative to that of the untreated control animals. The doses associated with the stasis and 1-log10 endpoint for each strain was calculated using the equation: log10 D=[log10 (E/(Emax−E))/N]+log10 ED50, where D is the drug dose, E is the control growth in untreated animals, Emax is the maximal effect, Nis the slope of the dose-response relationship, and ED50 is the dose needed to achieve 50% of the maximal effect. The associated AUC/MIC targets were then calculated for each strain. […] The calculations were performed using both total and free drug concentrations. The coefficient of determination (R^2) was used to estimate the variance that might be due to regression with the PK/PD index. Kruskal-Wallis one-way analysis of variance (ANOVA) was used to determine if the differences in PK/PD targets were significant between the species.

A. fumigatus ATCC 13073 = assay: Disseminated aspergillosis in neutropenic ICR mice (Example 14), treatment and prophylaxis; type: in vivo, Aspergillus fumigatus
Experimental: Disseminated aspergillosis: ICR mice (6/grp) were made neutropenic by cyclophosphamide on Days −3 (270 mg/kg), +1 and +4 (90 mg/kg). IV infection with A. fumigatus ATCC 13073 (10^4 CFU/mouse) on Day 0. […] Survival monitored for a 10 days. Same model was used for prophylaxis except CD101 was dosed on Days −1, −3 or −5.

[4] = Median of 3 C. glabrata strains

Compound: CCCCCOc1ccc(-c2ccc(-c3ccc(C(=O)N[C@H]4C[C@@H](O)[C@@H](OCC[N+](C)(C)C)NC(=O)C5C(O)[C@@H](C)CN5C(=O)[C@H]([C@@H](C)O)NC(=O)[C@H]([C@H](O)[C@@H](O)c5ccc(O)cc5)NC(=O)[C@@H]5C[C@@H](O)CN5C(=O)C(C(C)O)NC4=O)cc3)cc2)cc1 (stereo partly drawn) [CD101] ({pTerphenylCO(4''-OnC5H11)}-[Orn(4R-OH,5R-OCH2CH2NMe3+)][ξT][Hyp][hTyr(3S-OH,4S-OH)]T[X1]; lactam 1-C)
- MIC [1]: 0.03 µg/mL
- fraction unbound at 2.5 hr [2]: 0.008
- MEC50 [3]: 0.015 µg/mL
- MEC90 [3]: 0.015 µg/mL
- 1 log kill 24 h Ave Free drug AUC/MIC (C. glabrata; 5592): 0.36
- 1 log kill free drug AUC0-168 h/MIC (C. glabrata; 5592): 2.54
- 1 log kill total drug AUC0-168 h/MIC (C. glabrata; 5592): 317.50
- Stasis 24 h Ave free drug AUC/MIC (C. glabrata; 5592): 0.05
- Stasis free drug AUC0-168 h/MIC (C. glabrata; 5592): 0.35
- Stasis total drug AUC0-168 h/MIC (C. glabrata; 5592): 43.16
- 1 log kill dose (C. glabrata; 5592, single IP dose, 168 h): 0.43 mg/kg
- Static dose (C. glabrata; 5592, single IP dose, 168 h): 0.06 mg/kg
- 1 log kill 24 h Ave Free drug AUC/MIC (C. glabrata; 10956): 1.20
- 1 log kill free drug AUC0-168 h/MIC (C. glabrata; 10956): 8.42
- 1 log kill total drug AUC0-168 h/MIC (C. glabrata; 10956): 1052.22
- Stasis 24 h Ave free drug AUC/MIC (C. glabrata; 10956): 0.48
- Stasis free drug AUC0-168 h/MIC (C. glabrata; 10956): 3.35
- Stasis total drug AUC0-168 h/MIC (C. glabrata; 10956): 418.68
- 1 log kill dose (C. glabrata; 10956, single IP dose, 168 h): 17.25 mg/kg
- Static dose (C. glabrata; 10956, single IP dose, 168 h): 6.29 mg/kg
- 1 log kill 24 h Ave Free drug AUC/MIC (C. glabrata; 35315): 0.42
- 1 log kill free drug AUC0-168 h/MIC (C. glabrata; 35315): 2.94
- 1 log kill total drug AUC0-168 h/MIC (C. glabrata; 35315): 367.06
- Stasis 24 h Ave free drug AUC/MIC (C. glabrata; 35315): 0.07
- Stasis free drug AUC0-168 h/MIC (C. glabrata; 35315): 0.50
- Stasis total drug AUC0-168 h/MIC (C. glabrata; 35315): 62.50
- 1 log kill dose (C. glabrata; 35315, single IP dose, 168 h): 2.39 mg/kg
- Static dose (C. glabrata; 35315, single IP dose, 168 h): 0.34 mg/kg
- 1 log kill 24 h Ave Free drug AUC/MIC (C. glabrata; Mean of 3 C. glabrata strains): 0.66
- 1 log kill dose (C. glabrata; Mean of 3 C. glabrata strains): 6.69 mg/kg
- 1 log kill free drug AUC0-168 h/MIC (C. glabrata; Mean of 3 C. glabrata strains): 4.63
- 1 log kill total drug AUC0-168 h/MIC (C. glabrata; Mean of 3 C. glabrata strains): 578.93
- Stasis 24 h Ave free drug AUC/MIC (C. glabrata; Mean of 3 C. glabrata strains): 0.20
- Stasis free drug AUC0-168 h/MIC (C. glabrata; Mean of 3 C. glabrata strains): 1.40
- Stasis total drug AUC0-168 h/MIC (C. glabrata; Mean of 3 C. glabrata strains): 174.78
- Static dose (C. glabrata; Mean of 3 C. glabrata strains): 2.23 mg/kg
- 1 log kill 24 h Ave Free drug AUC/MIC (C. glabrata; [4]): 0.42
- 1 log kill dose (C. glabrata; [4]): 2.39 mg/kg
- 1 log kill free drug AUC0-168 h/MIC (C. glabrata; [4]): 2.94
- 1 log kill total drug AUC0-168 h/MIC (C. glabrata; [4]): 367.06
- Stasis 24 h Ave free drug AUC/MIC (C. glabrata; [4]): 0.07
- Stasis free drug AUC0-168 h/MIC (C. glabrata; [4]): 0.5
- Stasis total drug AUC0-168 h/MIC (C. glabrata; [4]): 62.50
- Static dose (C. glabrata; [4]): 0.34 mg/kg
- kill at high doses (C. glabrata; a number of strains, kidney burden, 168 h): > 2 log10
- free AUC/MIC targets lower than the three comparator echinocandins (C. glabrata; in vivo): > 10 fold
- survival (A. fumigatus ATCC 13073; prophylaxis): 100%
- survival (A. fumigatus ATCC 13073; prophylaxis, single 5 mg/kg given up to 5 days prior to infection): improved survival depending on day given
- survival (A. fumigatus ATCC 13073; treatment, IV/IP at 0.2, 1 or 5 mg/kg BID×5 d, vs vehicle): significant increase in survival compared to vehicle
- survival (A. fumigatus ATCC 13073; treatment, single 2 mg/kg vs 0.2 mg/kg BID×5 d): Survival was comparable
